# In patent US20230203060A1 (GENFLEET THERAPEUTICS (SHANGHAI) INC., priority 2020, published 2023):
# Like-named read-outs stand apart in the source and are kept apart here.
# How the values were obtained:
# [1] = test system: KRAS G12C mutant MIA PaCa-2 cells; assay: Cell proliferation inhibition experiment, 3D spheroid, CellTiter-Glo, MIA PaCa-2; assay type: cell-based, human; settings: 3D cell model in 384-well spheroid plate, 5 days, CellTiter-Glo, read-out: MIA-PaCa2 IC50
# Outline: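 Luminescent ATP read-out (CellTiter-Glo) after 5-day compound treatment of spheroids formed overnight from 200 MIA PaCa-2 cells/well; compounds in 3.16-fold series, 0.1% DMSO final. IC50 derived by four-parameter fit of percent inhibition, normalized to DMSO control and medium blank.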
# [2] = test system: phosphorylated ERK downstream of KRAS G12C in MIA PaCa2 cells; assay: Cell p-ERK detection experiment (HTRF) in MIA PaCa2; assay type: cell-based, human; settings: Homo sapiens, MIA PaCa-2, 2 h, MIA PaCa2 cells, 2 hours with compound, Advance ERK phospho-T202/Y204 HTRF kit; read-out: p-ERK IC50
# Outline: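 Phospho-ERK (T202/Y204) measured by HTRF after 30 min lysis and 4 h antibody incubation in MIA PaCa2 (KRAS G12C) cells, seeded at 2.5E4 per well and treated 2 h with compounds in 3.16-fold steps, final DMSO 0.1%. IC50 from a four-parameter fit of percent inhibition relative to DMSO and blank wells.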
# [3] = Homo sapiens, MIA PaCa-2, 120 h
structure (smiles),measurement,setting,value
"C=CC(=O)N1CCN2C(=O)c3c(N4CC(N(C)CCOC)CC4(C)C)nc(-c4c(O)cccc4F)c(Cl)c3OCC2C1 (single isomer, unassigned) [Z296-1]",IC50,[1]; [3],1.1 nM
same,IC50,[2],8 nM
C=CC(=O)N1CCN2C(=O)c3c(N4CCC[C@@]4(C)CO)nc(-c4c(O)cccc4F)c(Cl)c3OC[C@H]2C1 [Z279-2],IC50,[1]; [3],4.9 nM
same,IC50,[2],35 nM
"C=CC(=O)N1CCN2C(=O)c3c(N4CC(N(C)C5COC5)CC4(C)C)nc(-c4c(O)cccc4F)c(Cl)c3OC[C@H]2C1 (stereo partly drawn) [Z326, (6aR)-8-acryloyl-4-chloro-1-(2,2-dimethyl-4-(methyl(oxetan-3-yl)amino)pyrrolidin-1-yl)-3-(2-fluoro-6-hydroxyphenyl)-6,6a,7,8,9,10-hexahydro-12H-pyrazino[2,1-c]pyrido[3,4-f][1,4]oxazepin-12-one]",IC50,[1]; [3],0.9 nM
same,IC50,[2],6 nM
"C=CC(=O)N1CCN2C(=O)c3c(N4C[C@@H](O)CC4(C)C)nc(-c4c(O)ccc(Cl)c4F)c(F)c3OC[C@H]2C1 (single isomer, unassigned) [Z340-1]",IC50,[1]; [3],11 nM
same,IC50,[2],59 nM
"C=CC(=O)N1CCN2C(=O)c3c(N4CCN(C)C[C@@H]4C)nc(-c4nc(N)cc(C)c4C(F)(F)F)c(Cl)c3OC[C@H]2C1 [Z328-1, (R)-8-acryloyl-3-(6-amino-4-methyl-3-(trifluoromethyl)pyridin-2-yl)-4-chloro-1-((S)-2,4-dimethylpiperazin-1-yl)-6,6a,7,8,9,10-hexahydro-12H-pyrazino[2,1-c]pyrido[3,4-f][1,4]oxazepin-12-one]",IC50,[1]; [3],1.7 nM
same,IC50,[2],15 nM
"C=CC(=O)N1CCN2C(=O)c3c(N4CCN(C)C(C)C4C)nc(-c4c(O)cccc4F)c(Cl)c3OC[C@H]2C1 (stereo partly drawn) [Z369, (6aR)-8-acryloyl-4-chloro-3-(2-fluoro-6-hydroxyphenyl)-1-(2,3,4-trimethylpiperazin-1-yl)-6,6a,7,8,9,10-hexahydro-12H-pyrazino[2,1-c]pyrido[3,4-f][1,4]oxazepin-12-one]",IC50,[1],6 nM
same,IC50,[2],29 nM
"C=CC(=O)N1CCN2C(=O)c3c(N4CCN(C5COC5)C[C@@H]4C)nc(-c4c(O)cccc4F)c(Cl)c3OC[C@H]2C1 (single isomer, unassigned) [Z239-1]",IC50,[1]; [3],20 nM
"C=CC(=O)N1CCN2C(=O)c3c(Nc4c(C(C)C)ncnc4C(C)C)nc(-c4c(O)cccc4F)c(Cl)c3OC[C@H]2C1 [Z15, (6aR)-8-acryloyl-4-chloro-1-((4,6-diisopropylpyrimidin-5-yl)amino)-3-(2-fluoro-6-hydroxyphenyl)-6,6a,7,8,9,10-hexahydro-12H-pyrazino[2,1-c]pyrido[3,4-f][1,4]oxazepin-12-one]",IC50,[1]; [3],15 nM
same,IC50,[2],65 nM
"C=CC(=O)N1CCN2C(=O)c3c(N4C[C@H](O)[C@H]4C)nc(-c4c(O)cccc4F)c(Cl)c3OC[C@H]2C1 (single isomer, unassigned) [Z102-4]",IC50,[2],134 nM
"C=CC(=O)N1CCN2C(=O)c3c(N4C[C@@](C)(O)CC4(C)C)nc(-c4c(O)cccc4F)c(Cl)c3OC[C@H]2C1 (single isomer, unassigned) [Z243-1]",IC50,[1]; [3],1.5 nM
same,IC50,[2],8 nM
"C=CC(=O)N1CCN2C(=O)c3c(N4CC[C@H](OC)[C@@H]4C)nc(-c4c(O)cccc4F)c(Cl)c3OC[C@H]2C1 [Z347-1, (6aR)-8-acryloyl-4-chloro-3-(2-fluoro-6-hydroxyphenyl)-1-((2S,3S)-3-methoxy-2-methylpyrrolidin-1-yl)-6,6a,7,8,9,10-hexahydro-12H-pyrazino[2,1-c]pyrido[3,4-f][1,4]oxazepin-12-one]",IC50,[1]; [3],4 nM
same,IC50,[2],11 nM
"C=CC(=O)N1CCN2C(=O)c3c(N4CC(C)(C)OC[C@@H]4C)nc(-c4c(O)cccc4F)c(Cl)c3OC[C@H]2C1 [Z276-1, (6aR)-8-acryloyl-4-chloro-3-(2-fluoro-6-hydroxyphenyl)-1-((S)-2,2,5-trimethylmorpholino)-6,6a,7,8,9,10-hexahydro-12H-pyrazino[2,1-c]pyrido[3,4-f][1,4]oxazepin-12-one]",IC50,[1]; [3],14.9 nM
same,IC50,[2],83 nM
"C=CC(=O)N1CCN2C(=O)c3c(N4CC[C@@H]5C[C@@H]54)nc(-c4c(O)cccc4F)c(Cl)c3OC[C@H]2C1 (single isomer, unassigned) [Z39-2]",IC50,[1]; [3],13 nM
same,IC50,[2],88 nM
"C=CC(=O)N1CCN2C(=O)c3c(N4CCN(C(C)=O)C(C)(C)C4)nc(-c4c(O)cccc4F)c(Cl)c3OC[C@H]2C1 [Z315, (6aR)-1-(4-acetyl-3,3-dimethylpiperazin-1-yl)-8-acryloyl-4-chloro-3-(2-fluoro-6-hydroxyphenyl)-6,6a,7,8,9,10-hexahydro-12H-pyrazino[2,1-c]pyrido[3,4-f][1,4]oxazepin-12-one]",IC50,[1]; [3],9.6 nM
same,IC50,[2],62 nM
"C=CC(=O)N1CCN2C(=O)c3c(N4CCCC4(C)C)nc(-c4c(O)cccc4F)c(Cl)c3OC[C@H]2C1 [Z22, (6aR)-8-acryloyl-4-chloro-1-(2,2-dimethylpyrrolidin-1-yl)-3-(2-fluoro-6-hydroxyphenyl)-6,6a,7,8,9,10-hexahydro-12H-pyrazino[2,1-c]pyrido[3,4-f][1,4]oxazepin-12-one]",IC50,[1]; [3],7 nM
same,IC50,[2],26 nM
"C=CC(=O)N1CCN2C(=O)c3c(N4C[C@@H](O)CC4(C)C)nc(-c4c(F)ccc(Cl)c4O)c(F)c3OC[C@H]2C1 (single isomer, unassigned) [Z341-1]",IC50,[1]; [3],24 nM
same,IC50,[2],106 nM
"C=CC(=O)N1CCN2C(=O)c3c(N4C[C@@H](CO)CC4(C)C)nc(-c4c(O)cccc4F)c(Cl)c3OC[C@H]2C1 (single isomer, unassigned) [Z240-1]",IC50,[1]; [3],3.7 nM
same,IC50,[2],19 nM
"C=CC(=O)N1CCN2C(=O)c3c(N4Cc5nn(C)cc5[C@@H]4C)nc(-c4c(O)cccc4F)c(Cl)c3OC[C@H]2C1 (single isomer, unassigned) [Z345-2]",IC50,[1]; [3],17 nM
same,IC50,[2],61 nM
"C=CC(=O)N1CCN2C(=O)c3c(N4C[C@H](OC)C[C@@H]4C)nc(-c4c(O)cccc4F)c(Cl)c3OC[C@H]2C1 [Z259a, (6aR)-8-acryloyl-4-chloro-3-(2-fluoro-6-hydroxyphenyl)-1-((2S,4R)-4-methoxy-2-methylpyrrolidin-1-yl)-6,6a,7,8,9,10-hexahydro-12H-pyrazino[2,1-c]pyrido[3,4-f][1,4]oxazepin-12-one]",IC50,[1]; [3],4.4 nM
same,IC50,[2],27 nM
"C=CC(=O)N1CCN2C(=O)c3c(N4C[C@@H](OC)CC4(C)C)nc(-c4c(O)cccc4F)c(Cl)c3OC[C@H]2C1 (single isomer, unassigned) [Z244-1]",IC50,[1]; [3],8 nM
same,IC50,[2],31 nM
"C=CC(=O)N1CCN2C(=O)c3c(N4CCN(C)[C@H](C)[C@@H]4C)nc(-c4c(O)cccc4F)c(Cl)c3OC[C@H]2C1 (single isomer, unassigned) [Z308a-1]",IC50,[1]; [3],7.8 nM
same,IC50,[2],71 nM
"C=CC(=O)N1CCN2C(=O)c3c(N4C[C@@H](N5CCOCC5)CC4(C)C)nc(-c4c(O)cccc4F)c(Cl)c3OC[C@H]2C1 (single isomer, unassigned) [Z297-2]",IC50,[1]; [3],3 nM
same,IC50,[2],18 nM
"C=CC(=O)N1CCN2C(=O)c3c(N4CC(O)CC4(C)C)nc(-c4c(O)cccc4F)c(C)c3OC[C@H]2C1 (single isomer, unassigned) [Z336-2]",IC50,[2],63 nM
"C=CC(=O)N1CCN2C(=O)c3c(N4C[C@H](N(C)C)C[C@@H]4C)nc(-c4c(O)cccc4F)c(Cl)c3OC[C@H]2C1 [Z237-1, (6aR)-8-acryloyl-4-chloro-1-((2S,4R)-4-(dimethylamino)-2-methylpyrrolidin-1-yl)-3-(2-fluoro-6-hydroxyphenyl)-6,6a,7,8,9,10-hexahydro-12H-pyrazino[2,1-c]pyrido[3,4-f][1,4]oxazepin-12-one]",IC50,[2],30 nM
"C=CC(=O)N1CCN2C(=O)c3c(N4CC(=O)N(CC)C[C@@H]4C)nc(-c4c(O)cccc4F)c(Cl)c3OC[C@H]2C1 [Z319-1, (6aR)-8-acryloyl-4-chloro-1-((S)-4-ethyl-2-methyl-5-oxopiperazin-1-yl)-3-(2-fluoro-6-hydroxyphenyl)-6,6a,7,8,9,10-hexahydro-12H-pyrazino[2,1-c]pyrido[3,4-f][1,4]oxazepin-12-one]",IC50,[2],16 nM
"C=CC(=O)N1CCN2C(=O)c3c(N4CCO[C@](C)(CO)C4)nc(-c4c(O)cccc4F)c(Cl)c3OC[C@H]2C1 (single isomer, unassigned) [Z333-1]",IC50,[1]; [3],30 nM
"C=CC(=O)N1CCN2C(=O)c3c(N4CC(CO)CC4(C)C)nc(-c4c(O)cccc4F)c(Cl)c3OC[C@H]2C1 (stereo partly drawn) [Z240, (6aR)-8-acryloyl-4-chloro-3-(2-fluoro-6-hydroxyphenyl)-1-(4-(hydroxymethyl)-2,2-dimethylpyrrolidin-1-yl)-6,6a,7,8,9,10-hexahydro-12H-pyrazino[2,1-c]pyrido[3,4-f][1,4]oxazepin-12-one]",IC50,[2],22 nM
"C=CC(=O)N1CCN2C(=O)c3c(N4CCN(C5CC5)C[C@@H]4C)nc(-c4c(O)cccc4F)c(Cl)c3OC[C@H]2C1 [Z312-1, (6aR)-8-acryloyl-4-chloro-1-((S)-4-cyclopropyl-2-methylpiperazin-1-yl)-3-(2-fluoro-6-hydroxyphenyl)-6,6a,7,8,9,10-hexahydro-12H-pyrazino[2,1-c]pyrido[3,4-f][1,4]oxazepin-12-one]",IC50,[2],194 nM
"C=CC(=O)N1CCN2C(=O)c3c(N4C[C@H](O)CC4(C)C)nc(-c4c(O)ccc(Cl)c4F)c(F)c3OC[C@H]2C1 (single isomer, unassigned) [Z340-2]",IC50,[1]; [3],74 nM
